US7737123B2, “Multidrug resistant anticancer anthracyclines” (The Ohio State University Research Foundation, priority 2005, dated 2010)
Like-named read-outs stand apart in the source and are kept apart here.

Key:
[1] = test system: leukemia cells K562; assay: Cytotoxicity in drug-sensitive leukemia K562 cells by MTS assay; type: cell-based; details: Homo sapiens
Method: The drug resistance index (DRI, ratio of IC50 in drug-resistant cells over IC50 in drug-sensitive cells) is a good indicator of drug's ability to overcome resistance.
The anticancer activities of Compounds 1-6 were examined in leukemia cells K562 and doxorubicin-resistant K562/Dox cells by MTS assay. The drug-resistant K562/Dox cell line was induced by doxorubicin treatment. The cell line was cultured in 0.1 μM doxorubicin one week/per month, followed by 10 days culture without doxrubicin before experiment. This is to maintain similar high levels of P-gp expression in each experiment. In drug-resistant K562 cells, MDR1 mRNA was induced by 600-fold higher than drug-sensitive K562 cells as measured by real-time PCR (data not shown). […] Then 20 μL MTS/PMS assay solution was added to each well and the absorbance was recorded. The cell survival was calculated as percentage of cell control group without treatment. The anticancer activities are summarized in Table 2 and graphically illustrated in FIG. 5. The IC50 values were calculated by WinNonlin 4.1 (Pharsight) from the dose-response curves of percentage of cell growth with the model: E=Emax−(Emax−E0)×[C/(C+EC50)]

[2] = test system: doxorubicin-resistant K562/Dox cells; assay: Cytotoxicity in doxorubicin-resistant K562/Dox cells by MTS assay; type: cell-based; details: for IC50: Homo sapiens, drug-resistant K562/Dox, MTS assay, 72 hours; for DRI (drug resistance index): ratio of IC50 in drug-resistant cells over IC50 in drug-sensitive cells
Method: The drug-resistant K562/Dox cell line was induced by doxorubicin treatment. The cell line was cultured in 0.1 μM doxorubicin one week/per month, followed by 10 days culture without doxrubicin before experiment. This is to maintain similar high levels of P-gp expression in each experiment. […] Then 20 μL MTS/PMS assay solution was added to each well and the absorbance was recorded. The cell survival was calculated as percentage of cell control group without treatment. […] The IC50 values were calculated by WinNonlin 4.1 (Pharsight) from the dose-response curves of percentage of cell growth with the model: E=Emax−(Emax−E0)×[C/(C+EC50)]

[3] = test system: K562/Dox; type: cell-based
[4] = test system: drug-resistant leukemia K562/Dox xenograft; assay: K562/Dox leukemia xenograft mouse model; details: for tumor growth inhibition (in words): 5 or 10 mg/kg intraperitoneally twice per week for three weeks, one week after dose
Method: In this animal model, 10^7 drug-resistant leukemia K562/Dox was injected subcutaneously into nude mice. […] The tumor volume was measured every three days.

[5] = biological target: T1, P-gp (Homo sapiens, UniProt P08183); assay: P-gp export (uptake and efflux by FACS) in K562/Dox cells with or without CsA; type: cell-based; details: CsA 5 μM, 30 min incubation
T1 construct: endogenous in cells; host or cells: K562/Dox (doxorubicin-induced drug-resistant K562 leukemia cells)

[6] = test system: colon cancer cell line SW620 cells; assay: Cytotoxicity in colon cancer cell line SW620 with MTS assay; type: cell-based; details: for IC50: read-out: IC50 in SW620
Method: The cytotoxicity of compounds DNR-1-DNR-6 prepared in this manner was examined in colon cancer cell line SW620 cells with MTS assay. […] Then 20 μL MTS/PMS assay solution was added to each well and the absorbance was recorded. The cell survival was calculated as percentage of cell control group without treatment. The IC50 of all these compounds against colon cancer cell line SW620 are summarized in Table 1 and graphically illustrated in FIGS. 1A and 1B. These IC50 values were calculated by WinNonlin 4.1 (Pharsight) from the dose-response curves of percentage of cell growth with the model: E=Emax−(Emax−E0)×[C/(C+EC50)].

[7] = drug-sensitive K562, MTS assay, 72 hours, read-out: IC50 in K562
[8] = 10 mg/kg twice per week for three weeks
[9] = drug-sensitive K562, values given in text in nM, read-out: IC50 against K562

T1 sequence (P08183 whole entry): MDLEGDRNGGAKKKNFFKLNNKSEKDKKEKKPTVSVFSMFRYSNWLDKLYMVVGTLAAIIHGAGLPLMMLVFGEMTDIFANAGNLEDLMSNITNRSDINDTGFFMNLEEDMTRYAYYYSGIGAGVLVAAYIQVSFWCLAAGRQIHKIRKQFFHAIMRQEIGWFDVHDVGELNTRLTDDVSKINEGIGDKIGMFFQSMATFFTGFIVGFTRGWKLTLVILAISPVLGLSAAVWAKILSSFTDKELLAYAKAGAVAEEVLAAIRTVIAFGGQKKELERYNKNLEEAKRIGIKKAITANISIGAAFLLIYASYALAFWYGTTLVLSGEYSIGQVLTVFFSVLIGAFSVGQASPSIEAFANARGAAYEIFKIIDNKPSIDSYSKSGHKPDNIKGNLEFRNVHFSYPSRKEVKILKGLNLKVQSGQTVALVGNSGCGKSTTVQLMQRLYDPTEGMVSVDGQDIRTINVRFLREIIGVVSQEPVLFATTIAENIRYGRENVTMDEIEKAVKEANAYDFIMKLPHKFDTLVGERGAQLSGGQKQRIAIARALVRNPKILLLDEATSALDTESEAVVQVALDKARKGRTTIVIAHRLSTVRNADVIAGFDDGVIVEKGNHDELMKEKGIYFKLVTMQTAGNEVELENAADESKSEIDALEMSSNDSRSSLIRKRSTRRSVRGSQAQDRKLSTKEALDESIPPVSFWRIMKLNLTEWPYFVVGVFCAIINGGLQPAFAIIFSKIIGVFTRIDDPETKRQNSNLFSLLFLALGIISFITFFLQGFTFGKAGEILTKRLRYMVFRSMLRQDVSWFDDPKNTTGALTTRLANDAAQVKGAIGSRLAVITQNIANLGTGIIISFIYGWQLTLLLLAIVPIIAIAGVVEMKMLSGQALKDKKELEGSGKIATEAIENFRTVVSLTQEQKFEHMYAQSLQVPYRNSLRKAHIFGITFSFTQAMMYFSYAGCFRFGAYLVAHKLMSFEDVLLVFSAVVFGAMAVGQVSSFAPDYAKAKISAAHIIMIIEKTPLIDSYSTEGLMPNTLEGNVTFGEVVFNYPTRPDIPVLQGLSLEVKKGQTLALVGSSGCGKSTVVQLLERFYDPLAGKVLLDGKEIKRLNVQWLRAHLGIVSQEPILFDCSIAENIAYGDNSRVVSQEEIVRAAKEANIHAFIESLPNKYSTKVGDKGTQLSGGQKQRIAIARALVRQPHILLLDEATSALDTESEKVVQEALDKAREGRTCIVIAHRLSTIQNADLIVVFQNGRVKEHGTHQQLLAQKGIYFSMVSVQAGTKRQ

COc1cccc2c1C(=O)c1c(O)c3c(c(O)c1C2=O)C[C@@](O)(C(C)=O)C[C@@H]3OC1CC(N=[N+]=[N-])C(O)C(C)O1 (stereo partly drawn) [ADNR, 3′-azido-deamino-daunorubicin]
IC50 [1, 7]: 75 nM
fold more active than DNR against drug-resistant K562 cells [2]: at least 5 fold
IC50 [2]: 1000 nM
DRI (drug resistance index) [2]: 13
DRI (drug resistance index) ([2]; listed as 8): 13.3
fold lower DRI than that of DNR ([2]; versus DNR): 25 fold
cell killing effect, drug alone ([3]; 1 μM, K562/Dox, without CsA): more than 50%
cell killing effect in combination with CsA ([3]; drug 1 μM plus CsA 5 μM, K562/Dox): did not change the cell killing effects
fold higher maximum growth inhibition rate than DNR ([4]; 5 mg/kg): 2.5 fold
body weight decrease [4, 8]: did not show any significant body weight change
survival after 50 days [4, 8]: 100%
tumor growth inhibition (in words) [4]: significantly inhibited tumor growth

COc1cccc2c1C(=O)c1c(O)c3c(c(O)c1C2=O)C[C@@](O)(C(C)=O)C[C@@H]3OC1CC(N=[N+]=[N-])C(OC2CCC(O)C(C)O2)C(C)O1 (stereo partly drawn) [Compound 1]
IC50 [1, 7]: 787 nM
IC50 [1, 9]: 200 to 1100 nM
DRI (drug resistance index) [2]: 2.45

COc1cccc2c1C(=O)c1c(O)c3c(c(O)c1C2=O)C[C@@](O)(C(C)=O)C[C@@H]3OC1CC(N=[N+]=[N-])C(OC2CC(O)C(O)C(C)O2)C(C)O1 (stereo partly drawn) [Compound 2]
IC50 [1, 7]: 287 nM
IC50 [1, 9]: 200 to 1100 nM
IC50 ([2]; K562, 72 h): 5440 nM
DRI (drug resistance index) [2]: 18.94

COc1cccc2c1C(=O)c1c(O)c3c(c(O)c1C2=O)C[C@@](O)(C(C)=O)C[C@@H]3OC1CC(N=[N+]=[N-])C(OC2CC(C)(OC)C(O)C(C)O2)C(C)O1 (stereo partly drawn) [Compound 4]
IC50 [1, 7]: 225 nM
IC50 [1, 9]: 200 to 1100 nM
IC50 ([2]; K562, 72 h): 12100 nM
DRI (drug resistance index) [2]: 53.64

COc1cccc2c1C(=O)c1c(O)c3c(c(O)c1C2=O)C[C@@](O)(C(C)=O)C[C@@H]3OC1CC(N=[N+]=[N-])C(OC2CC(N=[N+]=[N-])C(O)C(C)O2)C(C)O1 (stereo partly drawn) [Compound 6]
IC50 [1, 7]: 1130 nM
IC50 ([2]; K562, 72 h): 6390 nM
DRI (drug resistance index) [2]: 5.64

COc1cccc2c1C(=O)c1c(O)c3c(c(O)c1C2=O)C[C@@](O)(C(C)=O)C[C@@H]3O[C@H]1C[C@H](N)[C@H](O)[C@H](C)O1 [DNR, daunorubicin, reference compound]
effect of P-gp inhibitor (CsA) on retention of drug in K562/Dox cells, uptake and efflux phases [5]: significantly inhibited the drug efflux and increased drug accumulation
IC50 [1, 7]: 15 nM
IC50 [1, 9]: 15 nM
IC50 ([2]; K562, 72 h): > 5000 nM
cell killing effect in combination with CsA [3]: more than 70%
cell killing effect, drug alone [3]: 30%
time by which 50% mice died ([4]; 10 mg/kg): < 20 days
body weight decrease [4, 8]: more than 70%
time by which all mice died ([4]; 10 mg/kg, due to both tumor growth and drug toxicity): < 30 days
tumor growth inhibition (in words) [4]: significantly inhibited tumor growth
IC50 ([6]; Homo sapiens, SW-620, 72 h): 33.4 nM

COc1cccc2c1C(=O)c1c(O)c3c(c(O)c1C2=O)C[C@@](O)(C(C)=O)C[C@@H]3OC1OC(C)C(O)C(O)C1O (stereo partly drawn) [DNR-1]
IC50 ([6]; Homo sapiens, SW-620, 72 h): 265 nM

COc1cccc2c1C(=O)c1c(O)c3c(c(O)c1C2=O)C[C@@](O)(C(C)=O)C[C@@H]3OC1CC(C)(OC)C(O)C(C)O1 (stereo partly drawn) [DNR-3]
IC50 ([6]; Homo sapiens, SW-620, 72 h): > 1000 nM

COc1cccc2c1C(=O)c1c(O)c3c(c(O)c1C2=O)C[C@@](O)(C(C)=O)C[C@@H]3OC1CC(OC)C(O)C(C)O1 (stereo partly drawn) [DNR-4]
IC50 ([6]; Homo sapiens, SW-620, 72 h): 104 nM

COc1cccc2c1C(=O)c1c(O)c3c(c(O)c1C2=O)C[C@@](O)(C(C)=O)C[C@@H]3OC1CCC(O)C(C)O1 (stereo partly drawn) [DNR-5]
IC50 ([6]; Homo sapiens, SW-620, 72 h): 350 nM

COc1cccc2c1C(=O)c1c(O)c3c(c(O)c1C2=O)C[C@@](O)(C(C)=O)C[C@@H]3OC1CCC(N=[N+]=[N-])C(C)O1 (stereo partly drawn) [DNR-6]
cytotoxicity in SW620 (in words) ([6]; FIG. 1B): lost its cytotoxicity
IC50 ([6]; Homo sapiens, SW-620, 72 h): > 1000 nM

COc1cccc2c1C(=O)c1c(O)c3c(c(O)c1C2=O)C[C@@](O)(C(C)=O)C[C@@H]3O [DNR-A, reference compound]
fold lower cytotoxicity than compounds DNR-1-DNR-6 [6]: 70-100 fold
IC50 ([6]; MTS assay, 72 hours): > 2000 nM
